According to publication PMC8480901 (PLoS ONE, 2021):
Where “and” joins values, the source holds several entries; their conditions need not be identical. Identical values can stand only once.

Tests used:
human neutrophils = assay: Cytotoxicity in human neutrophils (CellTiter Glo); assay type: cell-based; conditions: ≤100 μM, cytotoxic if reduction from vehicle ≥20%
Protocol: For the chemotaxis and cytotoxicity evaluations, average relative light unit values were calculated from all untreated vehicle samples and, for each sample, percentage of vehicle value was calculated. The tested compound was considered cytotoxic if reduction from untreated vehicle was ≥20%.

J774.2 mouse macrophages = assay: LPS-induced cytokine and chemokine levels in J774.2 mouse macrophage cell supernatant (ELISA); assay type: cell-based; conditions: for CXCL1 % reduction / CXCL1 [pg/mL] Mean / CXCL2 % reduction / CXCL2 [pg/mL] Mean / MMP9 % reduction / MMP9 [pg/mL] Mean: J774.2 cells; for CXCL1 % reduction / CXCL1 [pg/mL] Mean / CXCL2 % reduction / CXCL2 [pg/mL] Mean / MMP9 % reduction / MMP9 [pg/mL] Mean / CCl2, % reduction / CCl2, Mean / GM-CSF % reduction / GM-CSF Mean / IL-1β % reduction / IL-1β Mean / IL-6 % reduction / IL-6 Mean / TNF-α % reduction / TNF-α Mean / CCl2 / CXCL1 / GM-CSF / IL-1β / IL-6 / TNF-α: LPS; for CCl2, % reduction / CCl2, Mean / GM-CSF % reduction / GM-CSF Mean / IL-1β % reduction / IL-1β Mean / IL-6 % reduction / IL-6 Mean / TNF-α % reduction / TNF-α Mean / CCl2 / CXCL1 / GM-CSF / IL-1β / IL-6 / TNF-α: J774.2 supernatant; for CCl2 / CXCL1 / GM-CSF / IL-1β / IL-6 / TNF-α: individual replicate

## CC[C@H]1OC(=O)[C@H](C)[C@@H](O[C@H]2C[C@@](C)(OC)[C@@H](O)[C@H](C)O2)[C@H](C)[C@@H](O[C@@H]2O[C@H](C)C[C@H](N(C)C)[C@H]2O)[C@](C)(O)C[C@@H](C)CN(C)[C@H](C)[C@@H](O)[C@]1(C)O [Azithromycin]
Human neutrophils
  cytotoxic effects: no cytotoxic effects
J774.2 mouse macrophages; compound 0.03 µM
  CXCL1 % reduction: -14%
  CXCL1 [pg/mL] Mean: 29 pg/mL
  CXCL2 % reduction: 36%
  CXCL2 [pg/mL] Mean: 20828 pg/mL
  MMP9 % reduction: -31%
  MMP9 [pg/mL] Mean: 1243 pg/mL
J774.2 mouse macrophages; compound 0.1 µM
  CXCL1 % reduction: -29%
  CXCL1 [pg/mL] Mean: 33 pg/mL
  CXCL2 % reduction: 38%
  CXCL2 [pg/mL] Mean: 20316 pg/mL
  MMP9 % reduction: -12%
  MMP9 [pg/mL] Mean: 1072 pg/mL
J774.2 mouse macrophages; compound 0.3 µM
  CXCL1 % reduction: -11%
  CXCL1 [pg/mL] Mean: 28 pg/mL
  CXCL2 % reduction: 29%
  CXCL2 [pg/mL] Mean: 23099 pg/mL
  MMP9 % reduction: -7%
  MMP9 [pg/mL] Mean: 1027 pg/mL
J774.2 mouse macrophages; compound 1 µM
  CXCL1 % reduction: -18%
  CXCL1 [pg/mL] Mean: 30 pg/mL
  CXCL2 % reduction: 13%
  CXCL2 [pg/mL] Mean: 28283 pg/mL
  MMP9 % reduction: -11%
J774.2 mouse macrophages; compound 3 µM
  CXCL1 % reduction: -30%
  CXCL1 [pg/mL] Mean: 33 pg/mL
  CXCL2 % reduction: 51%
  CXCL2 [pg/mL] Mean: 15868 pg/mL
  MMP9 % reduction: -14%
  MMP9 [pg/mL] Mean: 1088 pg/mL
J774.2 mouse macrophages; compound 10 µM
  CXCL1 % reduction: -51%
  CXCL1 [pg/mL] Mean: 39 pg/mL
  CXCL2 % reduction: 45%
  CXCL2 [pg/mL] Mean: 18014 pg/mL
  MMP9 % reduction: 11%
  MMP9 [pg/mL] Mean: 860 pg/mL
J774.2 mouse macrophages; compound 30 µM
  CXCL1 % reduction: -135%
  CXCL1 [pg/mL] Mean: 60 pg/mL
  CXCL2 % reduction: 26%
  CXCL2 [pg/mL] Mean: 23980 pg/mL
  MMP9 % reduction: 47%
  MMP9 [pg/mL] Mean: 539 pg/mL
J774.2 mouse macrophages; compound 100 µM
  CXCL1 % reduction: -128%
  CXCL1 [pg/mL] Mean: 58 pg/mL
  CXCL2 % reduction: 35%
  CXCL2 [pg/mL] Mean: 21270 pg/mL
  MMP9 % reduction: 70%
  MMP9 [pg/mL] Mean: 332 pg/mL
J774.2 mouse macrophages; J774.2 mouse macrophages, concentrations tested (0.03 to 10 μM shown)
  levels of the measured LPS-induced cytokines, chemokines, or MMP-9 in supernatants: little to no reduction
J774.2 mouse macrophages; 0.03 µM
  CCl2, % reduction: 18%
  CCl2, Mean: 29824 pg/mL
  GM-CSF % reduction: 64%
  GM-CSF Mean: 507 pg/mL
  IL-1β % reduction: -40%
  IL-1β Mean: 266 pg/mL
  IL-6 % reduction: 9%
  IL-6 Mean: 70233 pg/mL
  TNF-α % reduction: -11%
  TNF-α Mean: 1517 pg/mL
  CCl2: 28757.8 pg/mL and 30890.3 pg/mL
  CXCL1: 31.2 pg/mL and 27.2 pg/mL
  GM-CSF: 560.6 pg/mL and 452.6 pg/mL
  IL-1β: 258.52 pg/mL and 274.336 pg/mL
  IL-6: 75760 pg/mL and 64706 pg/mL
  TNF-α: 1559.1 pg/mL and 1475.0 pg/mL
J774.2 mouse macrophages; 0.1 µM
  CCl2, % reduction: 25%
  CCl2, Mean: 27461 pg/mL
  GM-CSF % reduction: 56%
  GM-CSF Mean: 616 pg/mL
  IL-1β % reduction: -16%
  IL-1β Mean: 222 pg/mL
  IL-6 % reduction: -5%
  IL-6 Mean: 81359 pg/mL
  TNF-α % reduction: -22%
  TNF-α Mean: 1665 pg/mL
  CCl2: 26336.9 pg/mL and 28584.6 pg/mL
  CXCL1: 32.4 pg/mL and 33.7 pg/mL
  GM-CSF: 657.0 pg/mL and 575.0 pg/mL
  IL-1β: 219.952 pg/mL and 223.825 pg/mL
  IL-6: 80523 pg/mL and 82194 pg/mL
  TNF-α: 1716.4 pg/mL and 1614.2 pg/mL
J774.2 mouse macrophages; 0.3 µM
  CCl2, % reduction: 20%
  CCl2, Mean: 29163 pg/mL
  GM-CSF % reduction: 72%
  GM-CSF Mean: 397 pg/mL
  IL-1β % reduction: 9%
  IL-1β Mean: 173 pg/mL
  IL-6 % reduction: 8%
  IL-6 Mean: 71113 pg/mL
  TNF-α % reduction: -8%
  TNF-α Mean: 1475 pg/mL
  CCl2: 28466.3 pg/mL and 29859.2 pg/mL
  CXCL1: 27.1 pg/mL and 29.7 pg/mL
  GM-CSF: 346.8 pg/mL and 446.6 pg/mL
  IL-1β: 173.433 pg/mL and 172.638 pg/mL
  IL-6: 72113 pg/mL and 70113 pg/mL
